Results from US20250312303A1, “ANTICANCER AGENT” (AGC Inc., priority 2022, published 2025).

Experiments:
HeLa cells [1] = test: Tumor volume of subcutaneously transplanted HeLa cells in SCID/SCID mice; type: in vivo; settings: for Tumor volume: 5 mg/kg intraperitoneally every day for two weeks starting day 7; for Increase in the size of the tumor tissue compared with the control group: HeLa tumor-bearing SCID/SCID mice, 5 mg/kg intraperitoneally every day for two weeks, result in words
Protocol: First, 0.1 mL samples of an HeLa cell solution with a concentration of 1.0×10^7 cells/mL were transplanted beneath the skin of SCID/SCID (immunodeficient) mice. Starting 7 days after the HeLa cell transplantation, PBS (control group), leucine (5 mg/kg mouse bodyweight) or trifluoroleucine (5 mg/kg mouse bodyweight) was administered intraperitoneally every day for two weeks. The growth of the tumor tissue was observed over time from the time of HeLa transplantation, and the tumor volume (mm^3) was calculated. The tumor volume (mm^3) was calculated from the major diameter (mm) of the tumor tissue and the minor diameter (mm) of the tumor tissue using the formula shown below.
With the exceptions of using monofluoroisoleucine or 5-fluoro-5-methyl-norleucine (CAS RN: 1361228-49-0) instead of the trifluoroleucine, and starting the administration of the PBS, 5-fluoro-5-methyl-norleucine or monofluoroisoleucine 11 days after rather than 7 days after the HeLa cell transplantation, the same procedure as (1) above was used to measure the volume (mm^3) of the tumor formed by the subcutaneously transplanted HeLa cells over time.
(§1) First, 0.1 mL samples of an HeLa cell solution with a concentration of 1.0×10^7 cells/mL were transplanted beneath the skin of SCID/SCID (immunodeficient) mice. Starting 7 days after the HeLa cell transplantation, PBS (control group), glutamine (Gln) (5 mg/kg mouse bodyweight), (2S,4S)Gln(1F) (5 mg/kg mouse bodyweight) or (2S,4R)Gln(1F) (5 mg/kg mouse bodyweight) was administered intraperitoneally every day for two weeks. The growth of the tumor tissue was observed over time from the time of HeLa cell transplantation, and the tumor volume (mm^3) was calculated. The tumor volume (mm^3) was determined in the same manner as that described in Example 2.
as §1, with “mouse bodyweight), or di-F-Gln(F)” for “mouse bodyweight), (2S,4S)Gln(1F) (5 mg/kg mouse bodyweight) or (2S,4R)Gln(1F)”, “bodyweight), or di-F-Gln(F) (5 mg/kg” for “bodyweight) or (2S,4R)Gln(1F) (5 mg/kg”, “of HeLa transplantation, and” for “of HeLa cell transplantation, and”

PANC-1 cells = test: SRB assay, relative cell proliferation rate of PANC-1 cells; type: cell-based
Text: (§2) HeLa cells and PANC-1 cells were used as the cancer cells. Both these cells were obtained from ATCC. Further, NHDF cells obtained from Lonza Group Ltd. were used as control non-cancer cells. The culture mediums used were Dulbecco's Modified Eagle Medium (D-MEM, manufactured by FUJIFILM Wako Pure Chemical Corporation) to which 10% FBS had been added (hereinafter also referred to as the “normal medium”), a medium prepared by removing leucine from D-MEM and adding 10% FBS (hereinafter also referred to as the “Leu-removed medium”), and a medium prepared by removing valine from D-MEM and adding 10% FBS (hereinafter also referred to as the “Val-removed medium”).
(§3) The culture cells were inoculated into a 96-well culture plate at a concentration of 3×10^3 cells/well, and following adhesion, were cultured for 24, 48 or 72 hours in the normal medium, the Leu-removed medium or Val-removed medium, or a medium prepared by adding the fluorine-containing amino acid to the Leu-removed medium or Val-removed medium in an amount sufficient to achieve a final concentration of 0.8 mM. Following culturing, the cell proliferation rate was measured by SRB assay. As a control, the cell proliferation rate was measured in a similar manner for cells having a culture time of 0 hours.
(§4) The SRB assays were conducted in the following manner. Following cell culturing, the medium was removed, and 10% (wt/vol) of trichloroacetic acid was added to fix the cells. Subsequently, the fixed cells were washed three times with tap water, and then stained by adding a solution containing 0.4% (wt/vol) of sulforhodamine B dissolved in 1% acetic acid. Following subsequent washing three times with a 1% acetic acid solution, a 10 mM Tris solution was added, and the light absorbance at 540 nm was measured. The 540 nm absorbance value for each sample was used to indicate the cell quantity, and for each sample, the relative cell proliferation rate (%) at a culture time of X hours was determined using the formula below.
(§5) SRB assays were conducted in the same manner as Example 1 with the exceptions of using a medium prepared by removing glutamine from D-MEM and adding 10% FBS (hereinafter also referred to as the “Gln-removed medium”) as the culture medium instead of the Leu-removed medium, using monofluoroglutamine ((2S,4S)Gln(1F) or (2S,4R)Gln(1F)) as the fluorine-containing amino acid, and altering the amount of monofluoroglutamine added to the Gln-removed medium to an amount sufficient to achieve a final concentration of 4 mM.
(§6) SRB assays were conducted in the same manner as Example 1 with the exceptions of using the Gln-removed medium as the culture medium instead of the Leu-removed medium, using difluoroglutamine as the fluorine-containing amino acid, and altering the amount of difluoroglutamine added to the Gln-removed medium to an amount sufficient to achieve a final concentration of 4 mM.

HeLa cells [2] = test: SRB assay, relative cell proliferation rate of HeLa cells; type: cell-based
Text: as §2, §3, §4, §5, §6

NHDF cells = test: SRB assay, relative cell proliferation rate of NHDF cells (control non-cancer cells); type: cell-based
Text: as §2, §3, §4, §5

[3] = 7 days since HeLa cell transplantation
[4] = 14 days since HeLa cell transplantation
[5] = 21 days since HeLa cell transplantation
[6] = Gln-removed medium + 4 mM amino acid, culture time 24 h
[7] = Gln-removed medium + 4 mM amino acid, culture time 48 h
[8] = Gln-removed medium + 4 mM amino acid, culture time 72 h
[9] = Leu-removed medium + 0.8 mM amino acid, culture time 24 h
[10] = Leu-removed medium + 0.8 mM amino acid, culture time 48 h
[11] = Leu-removed medium + 0.8 mM amino acid, culture time 72 h, hydrochloride

## NC(=O)[C@@H](F)C[C@H](N)C(=O)O [(2S,4S)-Gln(1F)]
HeLa cells [1]; [3]
  Tumor volume: 72.1 mm^3
HeLa cells [1]; 9 days since HeLa cell transplantation
  Tumor volume: 96.9 mm^3
HeLa cells [1]; 11 days since HeLa cell transplantation
  Tumor volume: 149.0 mm^3
HeLa cells [1]; [4]
  Tumor volume: 207.1 mm^3
HeLa cells [1]; 16 days since HeLa cell transplantation
  Tumor volume: 242.3 mm^3
HeLa cells [1]; 18 days since HeLa cell transplantation
  Tumor volume: 357.2 mm^3
HeLa cells [1]; [5]
  Tumor volume: 439.9 mm^3
HeLa cells [1]
  Increase in the size of the tumor tissue compared with the control group: dramatically inhibited
PANC-1 cells; [6]
  Relative cell proliferation rate of PANC-1 cells: 31.5%
PANC-1 cells; [7]
  Relative cell proliferation rate of PANC-1 cells: 27.3%
PANC-1 cells; [8]
  Relative cell proliferation rate of PANC-1 cells: 25.7%
HeLa cells [2]; [6]
  Relative cell proliferation rate of HeLa cells: 29.2%
HeLa cells [2]; [7]
  Relative cell proliferation rate of HeLa cells: 32.1%
HeLa cells [2]; [8]
  Relative cell proliferation rate of HeLa cells: 25.0%
NHDF cells; [6]
  Relative cell proliferation rate of NHDF cells: 157.4%
NHDF cells; [7]
  Relative cell proliferation rate of NHDF cells: 129.4%
NHDF cells; [8]
  Relative cell proliferation rate of NHDF cells: 82.9%

## CC(CC(N)C(=O)O)C(F)(F)F.Cl (centres unmarked) [Leu(3F), 2-amino-5,5,5-trifluoro-4-methylpentanoic acid hydrochloride]
HeLa cells [1]; [3]
  Tumor volume: 135.6 mm^3
HeLa cells [1]; 10 days since HeLa cell transplantation
  Tumor volume: 169.4 mm^3
HeLa cells [1]; 12 days since HeLa cell transplantation
  Tumor volume: 204.1 mm^3
HeLa cells [1]; [4]
  Tumor volume: 200.6 mm^3
HeLa cells [1]; 17 days since HeLa cell transplantation
  Tumor volume: 315.3 mm^3
HeLa cells [1]; 19 days since HeLa cell transplantation
  Tumor volume: 460.2 mm^3
HeLa cells [1]; [5]
  Tumor volume: 704.0 mm^3
HeLa cells [1]
  Increase in the size of the tumor tissue compared with the control group: dramatically inhibited
PANC-1 cells; [9]
  Relative cell proliferation rate of PANC-1 cells: 77.1%
PANC-1 cells; [10]
  Relative cell proliferation rate of PANC-1 cells: 87.0%
PANC-1 cells; [11]
  Relative cell proliferation rate of PANC-1 cells: 75.5%
HeLa cells [2]; [9]
  Relative cell proliferation rate of HeLa cells: 78.5%
HeLa cells [2]; [10]
  Relative cell proliferation rate of HeLa cells: 91.6%
HeLa cells [2]; [11]
  Relative cell proliferation rate of HeLa cells: 89.5%
NHDF cells; [9]
  Relative cell proliferation rate of NHDF cells: 138.5%
NHDF cells; [10]
  Relative cell proliferation rate of NHDF cells: 138.2%
NHDF cells; [11]
  Relative cell proliferation rate of NHDF cells: 185.6%
NHDF cells; Leu-removed medium + 0.8 mM amino acid, culture time 72 h, listed as trifluoroleucine, hydrochloride
  Relative cell proliferation rate of NHDF cells: ~200%
